The text below walks through data of US11865119B2, “Methods of treating agitation and other dementia-associated behavioral symptoms” (Woolsey Pharmaceuticals, Inc., priority 2021, dated 2024).

Assay [1] deals with agitation in patients with Alzheimer's Dementia (AD). Kind of assay: Clinical trial of oral fasudil in reducing agitation in patients with Alzheimer's Dementia (CMAI, NPI-Q). The class given is in vivo, human. Conditions: cutoff moved from 0 to 35 in 5-point increments; FIG. 3. The protocol: All the patients were treated for 6 weeks with 90 mg per day (30 mg TID) and a subset of patients was treated an additional 6 weeks with 180 mg per day (60 mg TID). […] A variety of assessments were conducted at baseline and at the end of treatment, including the NPI-Q and the CMAI.
Two baseline thresholds were set, and two analyses were done based on the two groupings that resulted. One threshold was based on the agitation/aggression domain of the NPI-Q and the other based on the CMAI score.
The first selection was based on NPI-Q score of ≥4.
The second selection required a baseline CMAI score of ≥20 and this yielded a 13-patient subgroup, having a mean baseline CMAI score of 34.4. […] All the patients selected using the NPI-Q agitation/aggression domain score of ≥4 were also included in this subgroup.
The analysis looked at the CMAI score prior to treatment and compared it to the last day of treatment (6 weeks for the 10 patients on the low dose and 12 weeks for the 3 patients on the high dose).
Finally, to examine the effects of changing the CMAI-C threshold, 5-point increments were used to move the cutoff from 0 to 35. […] It was concluded that setting the CMAI-C threshold of at least 5 provided a meaningful result over the population, even though higher thresholds we more powerful at detecting change.

The subject of another assay is mice. Particulars: six-month old mice; 10 mg/kg oral gavage once a day for 30 days; assessed over final 3 days; vs water; cited from earlier work.

With `O=S(=O)(c1cccc2cnccc12)N1CCCNCC1` [fasudil], the “effect of changing the baseline CMAI-C threshold on magnitude of observed effect” value in assay [1] is “As the threshold increased, so did the magnitude of the observed effect”. Besides, in the assay on mice, the “amount of time spent in the open arms of the maze” value was “significantly reduced”.
